In patent publication US6680289B1, “Methods, compositions, and articles for odor control” (The Proctor & Gamble Company, priority 1999, dated 2004):

Key:
[1] = cited from earlier work
[2] = Interaction of perfume components with cyclodextrin (CD); format: physicochemical; settings: perfume component with cyclodextrin
Excerpt: The following table illustrates the molecular weight property of some of the preferred perfume versus non-preferred perfume components.

CD interaction [2] | SMILES | solubility in water [1]
 | ClC=CC[N+]12CN3CN(CN(C3)C1)C2.[Cl-] [Dowicil 200, 1-(3-Chlorallyl) -3,5,7-triaza-1-azoniaadamantane chloride] | freely soluble in water
significant | CCC(C)(O)CCCC(C)C (centres unmarked) [Tetrahydrolinalol] | 
